Measurements taken from PMC10648349, “Aromatic Diboronic Acids as Effective KPC/AmpC Inhibitors” (Molecules, 2023).
Values after ≈ are worked out from the molar mass of the structure shown. Read-outs that look alike come from different tables or passages of the source.

Key:
[1] = test system: K. pneumoniae ATCC 700603 ESBL-positive; experiment: combination disc test CDT-ESBL; type: cell-based; details: Klebsiella pneumoniae
B. subtilis ATCC 6633 = experiment: direct antimicrobial activity (disc-diffusion); type: cell-based; details: Bacillus subtilis, ATCC6633; 0.4 mg per disc, 9 mm disc (linezolid 0.03 mg, 6 mm disc); - no zone; read-out: Diameter of inhibition zone
Summary of the method: (§1)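 Disc-diffusion (0.4 mg compound per disc, DMSO solutions), MIC, and MBC for bacteria or MFC for yeasts, run per EUCAST and CLSI recommendations. References: nitrofurantoin for Gram-negative rods, linezolid for Gram-positive bacteria, fluconazole for fungi.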

[2] = test system: S. epidermidis ATCC 12228; experiment: direct antimicrobial activity (disc-diffusion, MIC, MBC); type: cell-based; details: Staphylococcus epidermidis, ATCC12228; for zone of inhibition at 0.4 mg/disc: 0.4 mg per disc, 9 mm disc (linezolid 0.03 mg, 6 mm disc), - no zone, read-out: Diameter of inhibition zone
Summary of the method: as §1

E. faecalis ATCC 29212 = experiment: as above; type: cell-based; details: Enterococcus faecalis, ATCC29212; for zone of inhibition at 0.4 mg/disc: 0.4 mg per disc, 9 mm disc (linezolid 0.03 mg, 6 mm disc), - no zone, read-out: Diameter of inhibition zone
Summary of the method: as §1

[3] = test system: S. aureus ATCC 43300 MRSA; experiment: as above; type: cell-based; details: Staphylococcus aureus; for zone of inhibition at 0.4 mg/disc: 0.4 mg per disc, 9 mm disc (linezolid 0.03 mg, 6 mm disc), - no zone, read-out: Diameter of inhibition zone
Summary of the method: as §1

S. aureus ATCC 6538P = experiment: as above; type: cell-based; details: Staphylococcus aureus, ATCC6538P; for zone of inhibition at 0.4 mg/disc: 0.4 mg per disc, 9 mm disc (linezolid 0.03 mg, 6 mm disc), - no zone, read-out: Diameter of inhibition zone
Summary of the method: as §1

E. faecium ATCC 6057 = experiment: as above; type: cell-based; details: Enterococcus faecium, ATCC6057; for zone of inhibition at 0.4 mg/disc: 0.4 mg per disc, 9 mm disc (linezolid 0.03 mg, 6 mm disc), - no zone, read-out: Diameter of inhibition zone
Summary of the method: as §1

[4] = test system: E. coli 77 CMY-2-positive; experiment: checkerboard microdilution, antibiotic plus tested agent; type: cell-based, Escherichia coli
Summary of the method: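 β-lactam 1–64 mg/L × agent/PBA 4–16 mg/L checkerboard; meropenem vs carbapenemase producers, ceftazidime vs AmpC producer; imipenem, ertapenem added for selected agents. Readout: combination MICs, FICI (average and lowest); off-scale MICs taken as next doubling.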

[5] = test system: E. coli 76 KPC-2-positive; experiment: as above; type: cell-based, Escherichia coli
Summary of the method: (§2)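 Chequerboard layout: tested agent in three two-fold steps (4–16 mg/L) crossed with seven β-lactam dilutions (1–64 mg/L), meropenem for KPC strains and ceftazidime for the cAmpC strain. FICI from first non-growth wells, off-scale MICs raised one doubling; ≤0.5 counts as synergy, >4 antagonism.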

KPC producers = experiment: microdilution with carbapenems; type: cell-based
Protocol: To examine the ability of tested agents to inhibit various carbapenemases and AmpC-enzymes, their synergy with antibiotics against β-lactamase-producing strains was assessed by checkerboard microdilution assay, with slight modification. Checkerboards were prepared in microtiter plates, with seven two-fold dilutions of β-lactams (1–64 mg/L) in the rows and three two-fold dilutions of tested agents and PBA (4–16 mg/L) in the columns. Tested agents’ concentrations were limited to the concentrations at which the newest commercially available BLIs (vaborbactam, relebactam, and avibactam) are used in susceptibility testing. Plates were inoculated and incubated as in the MIC microdilution assay. Parallel, MICs of tested agents and PBA alone were determined by the microdilution assay. Following the incubation, antibiotic MICs in the presence of each agent’s concentration were determined. Moreover, for the first well without growth found in each checkerboard row and column along the growth/non-growth interface, the fractional inhibitory concentration index (FICI) was calculated using the formula below:FICI = [(MIC of antibiotic in combination)/(MIC of antibiotic alone)] + [(MIC of the tested agent in combination)/(MIC of tested agent alone)].
For calculations, all off-scale MICs were converted to the next-highest doubling concentration. Subsequently, both the average and the lowest FICI were interpreted. The interpretation was as follows: FICI ≤ 0.5, synergy; 0.5 < FICI ≤ 4, indifference and FICI > 4, antagonism. Primarily, examined combinations consisted of meropenem (Pol-Aura, Morag, Poland) plus tested agents against carbapenemases-producing strains and ceftazidime (Pol-Aura, Morag, Poland) plus tested agents against AmpC-producing strains. For agents that reduced meropenem MIC at least 4-fold for at least two tested strains, similar assays were performed with imipenem (Pol-Aura, Morag, Poland) and ertapenem (Pol-Aura, Morag, Poland).

[6] = test system: K. pneumoniae 81 KPC-3-positive; experiment: checkerboard microdilution, antibiotic plus tested agent; type: cell-based, Klebsiella pneumoniae
Summary of the method: as §2

[7] = test system: K. pneumoniae 83 KPC-3-positive, CTX-M-3-positive; experiment: as above; type: cell-based, Klebsiella pneumoniae
Summary of the method: as §2

[8] = test system: K. pneumoniae ATCC BAA-1705 KPC-2-positive; experiment: as above; type: cell-based, Klebsiella pneumoniae
Summary of the method: as §2

[9] = ATCC700603, agent 0.3 mg per disc, read-out: Diameter of inhibition zone, CAZ-30 disc with agent

OB(O)c1cc(C(F)(F)F)cc(B(O)O)c1F [2e]
zone of inhibition at 300 µg/disc [1, 9]: 16 mm
zone of inhibition at 0.4 mg/disc (B. subtilis ATCC 6633): 20 mm
MIC [2]: 0.78 µg/mL (≈ 3.1 µM)
zone of inhibition at 0.4 mg/disc [2]: 35 mm
MIC (E. faecalis ATCC 29212): 50 µg/mL (≈ 199 µM)
zone of inhibition at 0.4 mg/disc (E. faecalis ATCC 29212): 21 mm
MIC [3]: 12.5 µg/mL (≈ 49.7 µM)
zone of inhibition at 0.4 mg/disc [3]: 25 mm
MIC (S. aureus ATCC 6538P): 6.25 µg/mL (≈ 24.8 µM)
zone of inhibition at 0.4 mg/disc (S. aureus ATCC 6538P): 29 mm
MIC (E. faecium ATCC 6057): 100 µg/mL (≈ 397 µM)
zone of inhibition at 0.4 mg/disc (E. faecium ATCC 6057): 18 mm

OB(O)c1ccc(C(F)(F)F)cc1B(O)O [3e]
zone of inhibition at 300 µg/disc [1, 9]: 14 mm
zone of inhibition at 0.4 mg/disc (B. subtilis ATCC 6633): 22 mm
MIC [2]: 200 µg/mL (≈ 856 µM)
zone of inhibition at 0.4 mg/disc [2]: 21 mm
MIC (E. faecalis ATCC 29212): 200 µg/mL (≈ 856 µM)
zone of inhibition at 0.4 mg/disc (E. faecalis ATCC 29212): 14 mm
MIC [3]: 400 µg/mL (≈ 1710 µM)
zone of inhibition at 0.4 mg/disc [3]: 15 mm
MIC (S. aureus ATCC 6538P): 100 µg/mL (≈ 428 µM)
zone of inhibition at 0.4 mg/disc (S. aureus ATCC 6538P): 17 mm
MIC (E. faecium ATCC 6057): 200 µg/mL (≈ 856 µM)
zone of inhibition at 0.4 mg/disc (E. faecium ATCC 6057): 13 mm

OB(O)c1ccccc1 [PBA, phenylboronic acid, reference compound]
zone of inhibition at 300 µg/disc ([1]; ATCC700603, read-out: Diameter of inhibition zone, CAZ-30 disc with agent): 14 mm
Average FICI with ceftazidime [4]: 0.30
The lowest FICI with ceftazidime [4]: 0.15
Average FICI with ERT [5]: 0.35
Average FICI with IMI [5]: 0.22
Average FICI with MEM [5]: 0.26
The lowest FICI with ERT [5]: 0.26
The lowest FICI with IMI [5]: 0.15
The lowest FICI with MEM [5]: 0.26
carbapenems' MIC reduction, up to (KPC producers; agent 16 mg/L, KPC-2 producers): up to 8 fold
carbapenems' MIC reduction, up to (KPC producers; agent 16 mg/L, KPC-3 producers): up to 4 fold
Average FICI with ERT [6]: 0.51
Average FICI with IMI [6]: 0.43
Average FICI with MEM [6]: 0.51
The lowest FICI with ERT [6]: 0.51
The lowest FICI with IMI [6]: 0.27
The lowest FICI with MEM [6]: 0.51
Average FICI with ERT [7]: 0.51
Average FICI with IMI [7]: 0.68
Average FICI with MEM [7]: 0.35
The lowest FICI with ERT [7]: 0.51
The lowest FICI with IMI [7]: 0.51
The lowest FICI with MEM [7]: 0.26
Average FICI with ERT [8]: 0.85
Average FICI with IMI [8]: 0.43
Average FICI with MEM [8]: 0.43
The lowest FICI with ERT [8]: 0.52
The lowest FICI with IMI [8]: 0.27
The lowest FICI with MEM [8]: 0.27

OB(O)c1ccc(B(O)O)cc1 [1a]
zone of inhibition at 300 µg/disc [1, 9]: 17 mm
Average FICI with ceftazidime [4]: 0.30
The lowest FICI with ceftazidime [4]: 0.15
Average FICI with ERT [5]: 0.22
Average FICI with IMI [5]: 0.30
Average FICI with MEM [5]: 0.31
The lowest FICI with ERT [5]: 0.15
The lowest FICI with IMI [5]: 0.15
The lowest FICI with MEM [5]: 0.15
carbapenems' MIC reduction, up to (KPC producers; agent 4 mg/L): ≤ 2 fold
carbapenems' MIC reduction, up to (KPC producers; agent 8 mg/L): up to 8 fold
ertapenem potentiation better than PBA, by up to (KPC producers; all KPC producers): up to 8 fold
zone of inhibition at 0.4 mg/disc (B. subtilis ATCC 6633): 17 mm
Average FICI with ERT [6]: 0.20
Average FICI with IMI [6]: 0.22
Average FICI with MEM [6]: 0.24
The lowest FICI with ERT [6]: 0.08
The lowest FICI with IMI [6]: 0.15
The lowest FICI with MEM [6]: 0.08
Average FICI with ERT [7]: 0.35
Average FICI with IMI [7]: 0.35
Average FICI with MEM [7]: 0.39
The lowest FICI with ERT [7]: 0.26
The lowest FICI with IMI [7]: 0.26
The lowest FICI with MEM [7]: 0.15
Average FICI with ERT [8]: 0.43
Average FICI with IMI [8]: 0.43
Average FICI with MEM [8]: 0.30
The lowest FICI with ERT [8]: 0.27
The lowest FICI with IMI [8]: 0.27
The lowest FICI with MEM [8]: 0.15
MIC [2]: 400 µg/mL (≈ 2410 µM)
zone of inhibition at 0.4 mg/disc [2]: 14 mm
MIC (E. faecalis ATCC 29212): 200 µg/mL (≈ 1210 µM)
MIC [3]: 400 µg/mL (≈ 2410 µM)
MIC (S. aureus ATCC 6538P): 200 µg/mL (≈ 1210 µM)
MIC (E. faecium ATCC 6057): 400 µg/mL (≈ 2410 µM)

OB(O)c1cccc(F)c1B(O)O [3b]
zone of inhibition at 300 µg/disc [1, 9]: 16 mm
Average FICI with ceftazidime [4]: 0.43
The lowest FICI with ceftazidime [4]: 0.27
MIC [2]: 400 µg/mL (≈ 2180 µM)
zone of inhibition at 0.4 mg/disc [2]: 21 mm
MIC (E. faecalis ATCC 29212): > 400 µg/mL
MIC [3]: > 400 µg/mL
MIC (S. aureus ATCC 6538P): > 400 µg/mL
MIC (E. faecium ATCC 6057): > 400 µg/mL
